Counter-ions that a name gives are not always drawn. Like-named read-outs stand apart in the source and are kept apart here.
Tests used:
[1] = tested on: γ-aminobutyric acid (GABA); experiment: ELISA of brain tissue: GABA; assay type: in vivo, rat
Protocol: (§1) Anxiety-like depression rat model is induced by chronic induction of corticosterone. Five-week-old SD male rats (8/cage) randomly received 0.45% soluble Corticosterone suspension in β-cyclodextrin. The number of rats in each group has been supplemented in part 1.2 of the manuscript method. Specifically described as “The rats were randomly divided into 7 groups, 8 rats in each group, a total of 56 rats. […] The model was established by subcutaneous injection of corticosterone (20 mg⋅kg^−1) for 21 consecutive days. […] The control group and model group were given the same volume of normal saline. Solution preparation methods are described in Supplementary Material S1.1.
(§2) The contents of Serotonin transporter (5-HTT, JW.RA1057), dopamine (DA, JW.RA1621), γ-aminobutyric acid (GABA, JW.RA1389) and noradrenaline (NA, JW.RA2154) in the hippocampus were measured by ELISA kit. The tissue samples were added to PBS low-temperature homogenate according to 1:10, and the homogenate was centrifuged at 10,000 rpm at 4 °C […] for 10 min. The supernatant was taken to detect the content of the sample.

cortical neurons = experiment: Nissl staining of prefrontal cortex; assay type: in vivo, rat; conditions: crocin I low, medium, high doses; Gardenia extract 0.9 g/kg; positive drug 5 mg/kg
Description: (§3) Anxiety-like depression rat model is induced by chronic induction of corticosterone. Five-week-old SD male rats (8/cage) randomly received 0.45% soluble Corticosterone suspension in β-cyclodextrin. The number of rats in each group has been supplemented in part 1.2 of the manuscript method. Specifically described as “The rats were randomly divided into 7 groups, 8 rats in each group, a total of 56 rats. The number of groups were model group, blank control group, positive drug group, low, middle, and high dose of Crocin I group, and gardenia extract group respectively. The model was established by subcutaneous injection of corticosterone (20 mg⋅kg^−1) for 21 consecutive days. […] The control group and model group were given the same volume of normal saline. Solution preparation methods are described in Supplementary Material S1.1.
(§4) The rats were deeply anesthetized with 2% sodium pentobarbital. After 15 min, the rats heart were perfused and fixed with normal saline and 4% paraformaldehyde, respectively. Then the brain tissues of rats in different groups were collected. The brain tissue was cryosectioned at a thickness of 3 μm, and then Nissl staining was performed to analyze the hippocampal region of interest. The staining process is detailed in Supplementary Material S1.4.
After the behavioral evaluation of the rats, the rats were anesthetized and decapitated to take the brain. […]

[2] = tested on: rats with corticosterone-induced anxiety-like depression; experiment: Sucrose (sugar water) preference test; assay type: in vivo, rat; conditions: corticosterone model rats; crocin I 2.25, 4.5, 9 mg/kg intragastric
Description: as §3
(§5) After the model was established. […] Depression was assessed by the preference for sweet foods in healthy rats ([Tan et al., 2020]) Details were provided in the Additional file: SI 1.2-1.3.
1% sucrose aqueous solution was used in the experiment. […] On the day of the test, two bottles containing the same volume of 1% sucrose solution and ordinary water were put into cages, weighed before and after drinking water, and the liquid consumption in the two bottles within 24 hours was calculated.

[3] = tested on: Serotonin transporter (5-HTT); experiment: ELISA of brain tissue: 5-HTT; assay type: in vivo, rat
Protocol: as §1, §2

dopamine (DA) = experiment: ELISA of brain tissue: DA; assay type: in vivo, rat; conditions: for brain DA compared with the control group: crocin I high-dose group, positive drug group
Protocol: as §1, §2

noradrenaline (NA) = experiment: ELISA of brain tissue: NA; assay type: in vivo, rat
Protocol: as §1, §2

[4] = no reference given; cited from earlier work
[5] = tested on: rats with corticosterone-induced anxiety-like depression; experiment: Morris water maze test; assay type: in vivo, rat
Description: Anxiety-like depression rat model is induced by chronic induction of corticosterone. Five-week-old SD male rats (8/cage) randomly received 0.45% soluble Corticosterone suspension in β-cyclodextrin. The number of rats in each group has been supplemented in part 1.2 of the manuscript method. Specifically described as “The rats were randomly divided into 7 groups, 8 rats in each group, a total of 56 rats. The number of groups were model group, blank control group, positive drug group, low, middle, and high dose of Crocin I group, and gardenia extract group respectively. The model was established by subcutaneous injection of corticosterone (20 mg⋅kg^−1) for 21 consecutive days. […] The control group and model group were given the same volume of normal saline. […]
as §5
The water maze round pool was divided into Ⅰ, Ⅱ, Ⅲ, and Ⅳ quadrants. […] The position was placed once along the Ⅰ, Ⅱ, Ⅲ, and Ⅳ quadrants respectively, and the time of finding the platform within 60 seconds was recorded. […] After 5 days, the platform was removed, the animals were put into the pool from the original platform, and the number of rats crossing the target quadrant within 60 seconds was recorded.

hippocampal neurons = experiment: Nissl staining of hippocampus (DG, CA1, CA3); assay type: in vivo, rat; conditions: for neuronal cell damage in the dentate gyrus region: after administration, corticosterone model rats; for number of Nissl bodies, hippocampal CA3: crocin I low, medium, high dose, positive drug 5 mg/kg; for number of Nissl bodies, hippocampal CA1: high dose crocin I (9 mg/kg), positive control drug 5 mg/kg
Description: as §3, §4
After the behavioral evaluation of the rats, the rats were anesthetized and decapitated to take the brain. The brain tissue was fixed with 4% paraformaldehyde for 24 hours. Rinse with normal saline to remove the residual fixative. Dehydration with 30% sucrose solution. It was embedded with an OTC embedding agent, and after it was completely frozen, the shape was trimmed and the sections were frozen. According to the localization map of rat brain sections, the target locations of the hippocampus and prefrontal cortex of rats were selected and sectioned continuously in the coronal plane with a thickness of 3 µm. Stick the slides with adhesive slides and bake the slides in an oven at 37 ℃ for half an hour. The slices were stained with methyl violet dye and rinsed with distilled water. Nissl Differentiation was used to differentiate for 5 s and most of the staining solution was removed. The slides were placed successively in different concentrations of ethanol and gradient dehydration (0%, 50%, 75%, and 95% ethanol, the section and background color should be observed under a microscope during dehydration). After dehydration, the sections were sealed with transparent and neutral gum in anhydrous ethanol Ⅰ, Ⅱ, anhydrous ethanol-xylene (1:1), xylene Ⅰ, and Ⅱ solution, respectively, and observed under a microscope.

Caco-2 cells = conditions: no method or reference given; cited from earlier work
[6] = Stability of crocetin in plasma samples; assay type: in vitro ADME, rat; conditions: within one week at -20°C, n = 6
Protocol: The procedures for precision, stability, limit of quantitation, and sample recovery are described in the Supplementary Material S2.4 Methodological Investigations section.
Plasma samples were collected 30 minutes after administration (n=6). The stability of the samples was calculated within one week at -20°C.

[7] = Crocetin content of plasma sample by SERS and liquid phase determination; assay type: in vivo; conditions: SD, rat, oral, 4.5 mg kg^−1, 0.5 h medium-dose plasma
Protocol: The samples were analyzed by high performance liquid chromatography.
The treatment of plasma samples is described in Procedure 2.2.3. 50 uL of treated plasma was added into silver nanoparticle solution with an equal volume concentration of 10 mg/mL 50 uL mixed solution was placed on a round quartz sheet with a diameter of 1 cm, […] and the Raman spectrum was detected and recorded. Detection conditions: scanning time 3 s, laser power: 80 mW. Spectra are acquired by Optosky Raman microscopy software.
A standard curve was prepared based on the peak intensity of the characteristic peak at 1,532 cm^−1 and the content was determined, as shown in Figure 10C.

[8] = gardenia extract 0.9 g/kg, positive drug paroxetine hydrochloride 5 mg/kg

With `CC(/C=C/C=C(\C)C(=O)O[C@@H]1O[C@H](CO[C@@H]2O[C@H](CO)[C@@H](O)[C@H](O)[C@H]2O)[C@@H](O)[C@H](O)[C@H]1O)=C\C=C\C=C(C)\C=C\C=C(/C)C(=O)O[C@@H]1O[C@H](CO[C@@H]2O[C@H](CO)[C@@H](O)[C@H](O)[C@H]2O)[C@@H](O)[C@H](O)[C@H]1O` [Crocin I, crocin I] the “GABA expression level in brain tissue” value ([1]; High dose crocin I 9 mg/kg) was 6.83 ± 0.29 µmol/L, the “GABA expression level in brain tissue” value ([1]; Low dose crocin I 2.25 mg/kg, control 7.43, model 4.99) was 5.28 ± 0.21 µmol/L and the “GABA expression level in brain tissue” value ([1]; Medium dose crocin I 4.5 mg/kg) was 5.49 ± 0.29 µmol/L. The “GABA content compared with the model group” value ([1]; crocin I low-dose group) was “no significant difference”, the “number of Nissl bodies, prefrontal cortex” value (cortical neurons) was “increased” and the sugar water preference [2] was “dose-dependent”. For the same compound, the “5-HTT expression level in brain tissue” value ([3]; High dose crocin I 9 mg/kg) was 427.64 ± 7.00 ng/mL, the “5-HTT expression level in brain tissue” value ([3]; Low dose crocin I 2.25 mg/kg, control 238.58, model 573.69) was 374.76 ± 13.24 ng/mL and the “5-HTT expression level in brain tissue” value ([3]; Medium dose crocin I 4.5 mg/kg) was 459.21 ± 5.21 ng/mL. For the same compound, the “content of 5-HTT compared with the model group” value ([3]; crocin I low-, medium-, high-dose, gardenia extract, positive drug, P < 0.001) was “significantly reduced”, the “DA expression level in brain tissue” value (dopamine (DA); High dose crocin I 9 mg/kg) was 80.22 ± 2.64 nmol/L and the “DA expression level in brain tissue” value (dopamine (DA); Low dose crocin I 2.25 mg/kg, control 84.66, model 169.17) was 147.33 ± 3.72 nmol/L. For the same compound, the “DA expression level in brain tissue” value (dopamine (DA); Medium dose crocin I 4.5 mg/kg) was 137.22 ± 1.31 nmol/L, the “brain DA compared with the control group” value (dopamine (DA)) was “no significant difference” and the “NA expression level in brain tissue” value (noradrenaline (NA); High dose crocin I 9 mg/kg) was 5.60 ± 0.02 ng/mL. For the same compound, the “NA expression level in brain tissue” value (noradrenaline (NA); Low dose crocin I 2.25 mg/kg, control 3.78, model 8.08) was 5.99 ± 0.02 ng/mL, the “NA expression level in brain tissue” value (noradrenaline (NA); Medium dose crocin I 4.5 mg/kg) was 6.73 ± 0.18 ng/mL and the “oil-water partition coefficient (logP)” value [4] was −1.03. For the same compound, the “improvement of spatial memory ability” value ([5]; crocin I 2.25, 4.5, 9 mg/kg) was “dose-dependent”, the escape latency ([5]; crocin I low, middle and high dose groups (2.25, 4.5, 9 mg/kg)) was “decreased” and the “neuronal cell damage in the dentate gyrus region” value (hippocampal neurons) was “significantly improved”. For the same compound, the “dentate gyrus morphology (angle/shape)” value (hippocampal neurons; crocin I high dose 9 mg/kg) was “significant changes”, the “dentate gyrus morphology (angle/shape)” value (hippocampal neurons; crocin I low dose 2.25 mg/kg) was “no significant change” and the “number of Nissl bodies, hippocampal CA3” value (hippocampal neurons; gardenia extract 0.9 g/kg) was “increased in a dependent manner”. For the same compound, the “dentate gyrus morphology (angle/shape)” value (hippocampal neurons; crocin I middle dose 4.5 mg/kg) was “significant changes”, the “number of Nissl bodies, hippocampal CA1” value (hippocampal neurons; gardenia extract 0.9 g/kg) was “significantly increased” and the “number of Nissl bodies, dentate gyrus” value (hippocampal neurons; high-dose crocin I (9 mg/kg), gardenia extract 0.9 g/kg) was “increased significantly”. For the same compound, the “apparent permeability coefficient Papp” value (Caco-2 cells) was “low”.
With `Fc1ccc([C@@H]2CCNC[C@H]2COc2ccc3c(c2)OCO3)cc1` [Positive, paroxetine hydrochloride, reference compound] the “GABA expression level in brain tissue” value [1, 8] was 7.34 ± 0.30 µmol/L, the “number of Nissl bodies, prefrontal cortex” value (cortical neurons) was “increase” and the “brain DA compared with the control group” value (dopamine (DA)) was “no significant difference”. For the same compound, the “DA expression level in brain tissue” value (dopamine (DA); [8]) was 81.70 ± 1.94 nmol/L, the “NA expression level in brain tissue” value (noradrenaline (NA); [8]) was 4.64 ± 0.09 ng/mL and the “neuronal cell damage in the dentate gyrus region” value (hippocampal neurons) was “significantly improved”. For the same compound, the “number of Nissl bodies, hippocampal CA3” value (hippocampal neurons; gardenia extract 0.9 g/kg) was “no significant increase” and the “number of Nissl bodies, hippocampal CA1” value (hippocampal neurons; gardenia extract 0.9 g/kg) was “significantly increased”.
With `CC(/C=C/C=C(\C)C(=O)O)=C\C=C\C=C(C)\C=C\C=C(/C)C(=O)O` [crocetin] the “stability in plasma samples: Accuracy (RE, %)” value (“stability … (RE, %)” for short) ([6]; High dose plasma sample 837.96 ng/mL) was 99.64%, the “stability … (RE, %)” value ([6]; Low dose plasma sample 292.60 ng/mL) was 97.76% and the “stability … (RE, %)” value ([6]; Medium dose plasma sample 527.32 ng/mL) was 97.14%. The concentration at 0.5 h ([7]; AgNPs, peak 1,532 cm^-1, read-out: crocetin content in plasma by SERS) was 433 ng/mL, the concentration at 0.5 h ([7]; same sample, read-out: crocetin content in plasma by liquid phase determination) was 486 ng/mL and the “apparent permeability coefficient Papp” value (Caco-2 cells) was “high”.

— paper PMC11903455 (Frontiers in Pharmacology, 2025)
